Laboratory results taken from patent US9611286B2, “Ruthenium carbon monoxide releasing molecules and uses thereof” (Alfama, Inc., priority 2011, dated 2017).

Key:
P. berghei ANKA [1] = experiment: Parasite r18S (pRBC accumulation) in brain by qRT-PCR; type: in vivo, C57BL/6 mice
Procedure: (§1) Mice were sacrificed, when infected control mice presented signs of ECM, and perfused intracardially with PBS to remove circulating RBC and leukocytes from the organs. RNA was isolated from brains, livers and lungs using Trizol Reagent (Invitrogen, Life technologies), according to the manufacturer's recommendation. The synthesis of the first-strand cDNA from the RNA templates was carried out using the Transcriptor First Strand cDNA Synthesis Kit (Roche). RT-PCR reactions were performed in the presence of SYBER Green (SYBER Green PCR master mix, Applied Biosystems) on an ABI PRISM 7500Fast (Applied Biosystem). Oligonucleotides used for the specific amplification of genes include:
(§2) The relative changes in gene expression between experimental and control groups were calculated by the Pfaffl method using hprt as internal control gene. Statistical Analysis

[2] = Determination of CO in tissues; type: in vivo; details: one hour after i.v. administration, non-infected mice
Procedure: It is hypothesized that Compound 1 promotes/increases erythrophagocytosis.
CO was quantified in different tissues as previously described (see, e.g., Vreman et al., Anal Biochem (2005) 341:280-289). Briefly, CO was liberated as gas in a closed vial by adding 25 μL of water and 5 μL of sulfosalicylic acid (SSA, 30% [wt/vol]) to 30 μL of diluted sample after being homogenized. The vials were incubated on ice for at least 10 min before being analyzed. The gas in the headspace of the vials was analyzed quantitatively with a gas chromatograph (GC) equipped with a reducing-compound photometry detector (RCP detector) (Peak Laboratories, Mountain View, Calif.), which allows to quantify CO in gas at concentrations as low as 1-2 parts per billion (ppb). The amount of CO was calculated using a calibration curve prepared from CO standards. Briefly, blood was collected from the tail of the mice to capillary tubes (VWR) with heparin (100 i.u./ml in PBS 1×; LEO Pharma Inc.), transferred into AVOXimeter 4000 cuvettes (ITC) where the levels of carboxyhemoglobin (COHb), oxyhemoglobin (O2Hb) and methemoglobin (MetHb) were measured in a portable AVOXimeter 4000 CO-oximeter (ITC). Results are shown as mean percentage of total hemoglobin species in circulation.

P. berghei ANKA GFP = experiment: Adjunctive/adjuvant therapy with artesunate after onset of ECM; type: in vivo, C57BL/6 mice; details: during administration of AS, between days 5 and 6
Procedure: Thus, the inventors decided to test Compound 1 as an adjunctive and adjuvant therapy during the acute phase of ECM. […] Therefore, the inventors assessed the combination of Compound 1 and AS on parasite clearance and clinical recovery from ECM. Two AS and Compound 1 combinations were tested: (i) Adjunctive therapy: AS and Compound 1 were administered concomitantly for 2 days after the onset of CM followed by a 3-day treatment with Compound 1 alone, or (ii) Adjuvant therapy: AS was administered on the first 2 days after CM onset followed by Compound 1 administration for 3 more days.
In order to evaluate the clinical presentation of experimental cerebral malaria, a classification was used in clinical stages from 0 to 4 (see, e.g., Bienvenu et al., Acta Trop (2008) 106:104-8; Franklin et al., Proc Natl Acad Sci USA (2011) 108:3689-94). Briefly, stage 0 indicates no detectable clinical symptoms, stage 1, ruffled fur; stage 2, ruffled fur and unbalancing; stage 3, limb paralysis and respiratory distress and stage 4, convulsions, coma or death. The mice were clinically classified before and after the treatment to evaluate the clinical recovery.
CORM-2 (Sigma-Aldrich) and Compound 2 were solubilized using 10% dimethyl sulfoxide (DMSO; Sigma-Aldrich) in PBS. CORM-3 and Compound 1 were solubilized in PBS (lx). CORM-2 solution (20 mg/kg of body weight) was administered intravenously (i.v.) according to the chosen schedules. […] As vehicle control, we used a solution of 10% DMSO in PBS administered i.v. The concentrations of CORM-2 used in the present study were based on previous reports (see, e.g., Chen et al. Am. J. Pathol. (2009) 175:422-429; Sun et al., World. J. Gastroenterol. (2008) 14:547-553). Artesunate is presented as a powder of artesunic acid. Artesunate (AS) solution was prepared by dissolving 60 mg of anhydrous artesunic acid in 1 ml of sodium bicarbonate (5%) to form sodium artesunate and then diluted in 5 ml of NaCl (0.9%). An AS solution (i.p.) was administered at 40 mg/Kg/day, as described previously (see, e.g., Bienvenu, Acta Trop (2008) 106:104-108). The AS treatment was started when the infected non-treated mice presented the clinical stage 1 for experimental cerebral malaria.

P. berghei ANKA [3] = experiment: In vitro replication of P. berghei ANKA; type: cell-based, Plasmodium berghei; details: 24 h
Procedure: (§3) The data led the inventors to wonder whether Compound 1 could have a direct anti-parasitic effect on P. berghei ANKA and P. falciparum parasites. To this end, the effect of Compound 1 and the anti-malarial chloroquine (CQ) was monitored on the in vitro replication of P. falciparum 3D7 isolate and P. berghei ANKA for 48 h and 24 h, respectively.

[4] = Quantification of COHb in peripheral blood; type: in vivo, C57BL/6 mice; details: infected mice, day 3 after infection
Procedure: Blood was collected from the tail of the mice to capillary tubes (VWR) with heparin (100 i.u./ml in PBS 1×; LEO Pharma Inc.), transferred into AVOXimeter 4000 cuvettes (ITC) where the levels of carboxyhemoglobin (COHb), oxyhemoglobin (02Hb) and methemoglobin (MetHb) were measured in a portable AVOXimeter 4000 CO-oximeter (ITC). Results are shown as mean percentage of total hemoglobin species in circulation.

VEGF = VEGF protein levels in plasma (ELISA), M-AALI model; type: in vivo; details: infected DBA/2 mice
Procedure: Mouse VEGF in plasma samples was determined using a commercial ELISA kit (R&D Systems) following the manufacturer's instructions. The group classification was only performed by the end of each experiment after determining the cause of death.

[5] = BBB disruption by Evans blue accumulation in brain parenchyma; type: in vivo, C57BL/6 mice; details: when control mice showed signs of ECM
P. berghei ANKA [6] = experiment: Malaria-associated acute lung injury (M-AALI) model; type: in vivo, DBA/2 mice; details: i.v. twice daily between days 2 and 4 after infection
Source text: The M-AALI model, based on the infection of DBA-2 mice with P. berghei ANKA, is characterized by dyspnea, airway obstruction, hypoxemia, pulmonary exudate and elevated VEGF levels in plasma, followed by death between days 7 and 12 after infection.
Red blood cells infected with green fluorescent protein (GFP)-transgenic P. berghei ANKA and P. berghei ANKA was used to infect mice (see, e.g., Franke-Fayard et al. Mol Biochem Parasitol (2004) 137:23-33). Cryopreserved parasites were passed once through C57BL/6 or DBA-2 mice before being used to infect experimental animals. […] The infected mice were monitored daily for clinical symptoms of experimental cerebral malaria (ECM) including hemi- or paraplegia, head deviation, tendency to roll over on stimulation, ataxia and convulsions, or ALI, including dyspnea. […] Parasitemia was assessed by flow cytometry for mice infected with GFP-expressing P. berghei ANKA, using tail blood, as previously described (see, e.g., Pamplona et al., Nat Med (2007) 13:703-710). Mean parasitemia is expressed as percentage of infected red blood cells. For mice infected with non-GFP P. berghei parasitemia was assessed daily by microscopic counting of Giemsa-stained thin blood smears. Mean parasitemia is expressed as percentage of infected red blood cells. Survival is expressed as percentage. […]

IFN-γ = IFN-γ mRNA expression in brain by qRT-PCR; type: in vivo, C57BL/6 mice
Procedure: as §1, §2

HO-1 = HO-1 mRNA expression by qRT-PCR in infected mice; type: in vivo, C57BL/6 mice; details: day 3 after infection
Procedure: as §1, §2

P. falciparum 3D7 = experiment: In vitro replication of P. falciparum 3D7; type: cell-based, Plasmodium falciparum; details: 48 h
Procedure: as §3

C[SH]([C@@H]1OC(CO)[C@H](O)[C@H](O)C1O)[Ru]([Cl])([Cl])([CH]=O)([CH]=O)[CH]=O (some centres unmarked) [Compound 1, Tricarbonyldichloro(methylthiogalactopyranoside) Ru(II)]
pRBC accumulation in the brain vs Compound 2-treated mice (P. berghei ANKA [1]): significantly lower | levels of CO in organs [2]: higher levels of CO in the liver and spleen | interference with the anti-malarial action of AS (P. berghei ANKA GFP): did not interfere with the anti-malarial action of AS in vivo | inhibition of in vitro growth (P. berghei ANKA [3]): does not inhibit in vitro growth | COHb levels in the blood [4]: without causing measurable increase in COHb levels | VEGF levels in plasma (VEGF): significantly lower | BBB disruption [5]: did not show any evidence of BBB disruption | mice that developed M-AALI (P. berghei ANKA [6]): None | IFN-γ mRNA expression vs infected Compound 2-treated mice (IFN-γ): reduced | HO-1 mRNA expression in brain vs non-infected and Compound 2-treated mice (HO-1): not significantly different | inhibition of in vitro growth (P. falciparum 3D7): does not inhibit in vitro growth
